Assays:
[1] = molecular target: T1, rat and human TRPV2 chimera RRH (Rattus norvegicus, UniProt Q9WUD2, A714S/D654T/DEL680-680/E685A/G695P/H651S/H683Q/K690T/K717Q/L688M/N655D/R687V/R694K/S723C/T698S); test: Calcium mobilization in HEK293 cells expressing TRPV2 chimera RRH; assay type: cell-based; details: expressed separately in HEK cells
T1 construct: expressed in transfected cells; host or cells: HEK293, transient, pCI-neo
T1 sequence (Q9WUD2 with tags, fused parts or gaps H651S/D654T/N655D/DEL680-680/H683Q/E685A/R687V/L688M/K690T/R694K/G695P/T698S/A714S/K717Q/S723C): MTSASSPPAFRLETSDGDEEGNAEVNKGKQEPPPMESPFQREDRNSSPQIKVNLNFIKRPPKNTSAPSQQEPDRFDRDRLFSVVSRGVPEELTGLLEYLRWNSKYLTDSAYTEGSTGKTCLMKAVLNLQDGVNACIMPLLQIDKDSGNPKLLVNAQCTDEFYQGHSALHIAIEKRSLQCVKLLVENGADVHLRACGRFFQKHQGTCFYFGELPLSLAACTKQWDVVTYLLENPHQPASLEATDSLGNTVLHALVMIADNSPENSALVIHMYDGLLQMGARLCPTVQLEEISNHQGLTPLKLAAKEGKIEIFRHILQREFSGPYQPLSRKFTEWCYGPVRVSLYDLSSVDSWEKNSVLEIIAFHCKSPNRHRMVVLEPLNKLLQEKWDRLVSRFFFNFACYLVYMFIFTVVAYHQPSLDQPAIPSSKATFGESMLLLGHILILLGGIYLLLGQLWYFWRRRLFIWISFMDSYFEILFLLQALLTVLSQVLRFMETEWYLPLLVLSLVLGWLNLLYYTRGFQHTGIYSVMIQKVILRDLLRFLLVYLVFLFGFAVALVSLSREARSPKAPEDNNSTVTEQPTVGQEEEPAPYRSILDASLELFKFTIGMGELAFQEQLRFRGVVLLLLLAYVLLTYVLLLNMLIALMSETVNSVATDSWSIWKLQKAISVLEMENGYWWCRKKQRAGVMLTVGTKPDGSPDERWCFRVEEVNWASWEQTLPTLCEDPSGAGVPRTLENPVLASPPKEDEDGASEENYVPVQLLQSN
Experimental: (§1) The deletion mutant constructs were then transfected into HEK293 cells using Fugene 6 reagent (Roche) as per the manufacturer's instructions. At 24 hours post-transfection, the cells were harvested and replated in fresh DMEM medium supplemented with 10% fetal bovine serum, 100 units/ml penicillin, and 100 μg/ml streptomycin. The cells were distributed onto poly-D-Lysine coated 96-or 384-well plates at a density of approximately 40,000 and 10,000 cells per well, respectively. At approximately 48 hours post-transfection, the medium was removed from the assay plate and replaced with Calcium 3 Dye Buffer (Molecular Devices) using the protocol available from the manufacturer. Calcium mobilization was triggered using Δ^9-THC or 2-APB or elevated temperature buffer and measured using either FLIPR or FLEX STATION instruments.
(§2) Based on the predicted topology and primary sequence features of TRPV2, TRPV2 are divided into 3 major domains: 1) the amino-terminal intracellular domain; 2) the transmembrane domain; and 3) the carboxyl-terminal intracellular domain. For a chimera, each domain can be of rat (R) or human (H) origin. Three rat and human TRPV2 chimera were constructed and tested herein. RRH (SEQ ID NO:15) was a chimera comprising rat 1-392 aa, rat 393-646 aa, and human 647-764 aa. RHR (SEQ ID NO:16) was a chimera comprising rat 1-392, human 391-646, and rat 647-761. […]

[2] = molecular target: T2, co-expressed TRPV2 chimeras RRH and HRR (Rattus norvegicus, UniProt Q9WUD2); test: Calcium mobilization in HEK293 cells co-expressing TRPV2 chimeras RRH and HRR; assay type: cell-based, rat/human; details: co-expression in HEK cells
T2 construct: expressed in transfected cells; host or cells: HEK293, transient co-expression, pCI-neo
T2 sequence (Q9WUD2 with tags, fused parts or gaps H651S/D654T/N655D/DEL680-680/H683Q/E685A/R687V/L688M/K690T/R694K/G695P/T698S/A714S/K717Q/S723C): T1 sequence (Q9WUD2 with tags, fused parts or gaps H651S/D654T/N655D/DEL680-680/H683Q/E685A/R687V/L688M/K690T/R694K/G695P/T698S/A714S/K717Q/S723C)
T2 sequence (Q9WUD2 with tags, fused parts or gaps P38Q/R41G/N45K/S46F/S47A/K51R/DEL56-59/P60Y/P61R/N63G/S65G/DEL67-67/Q70P/E71D/D73N/S82N/V83A/E91D/T93A/L96P/R100S/W101K/N102T/A110E/Q129K/M137L/K144R/K150Q/L151P/E160D/F161Y/Q163R/D189N/L192A/H202G/T227S/E240Q/L245Q/A257S/P261A/S264I/I268T/H269S/M277A/E289D/S291R/H293L/G295D/DEL322-322/Y323L/Q324S/P325H/S346A/W351C/K353E/N368H/E384A/R388L/V390I/S391P/R392K): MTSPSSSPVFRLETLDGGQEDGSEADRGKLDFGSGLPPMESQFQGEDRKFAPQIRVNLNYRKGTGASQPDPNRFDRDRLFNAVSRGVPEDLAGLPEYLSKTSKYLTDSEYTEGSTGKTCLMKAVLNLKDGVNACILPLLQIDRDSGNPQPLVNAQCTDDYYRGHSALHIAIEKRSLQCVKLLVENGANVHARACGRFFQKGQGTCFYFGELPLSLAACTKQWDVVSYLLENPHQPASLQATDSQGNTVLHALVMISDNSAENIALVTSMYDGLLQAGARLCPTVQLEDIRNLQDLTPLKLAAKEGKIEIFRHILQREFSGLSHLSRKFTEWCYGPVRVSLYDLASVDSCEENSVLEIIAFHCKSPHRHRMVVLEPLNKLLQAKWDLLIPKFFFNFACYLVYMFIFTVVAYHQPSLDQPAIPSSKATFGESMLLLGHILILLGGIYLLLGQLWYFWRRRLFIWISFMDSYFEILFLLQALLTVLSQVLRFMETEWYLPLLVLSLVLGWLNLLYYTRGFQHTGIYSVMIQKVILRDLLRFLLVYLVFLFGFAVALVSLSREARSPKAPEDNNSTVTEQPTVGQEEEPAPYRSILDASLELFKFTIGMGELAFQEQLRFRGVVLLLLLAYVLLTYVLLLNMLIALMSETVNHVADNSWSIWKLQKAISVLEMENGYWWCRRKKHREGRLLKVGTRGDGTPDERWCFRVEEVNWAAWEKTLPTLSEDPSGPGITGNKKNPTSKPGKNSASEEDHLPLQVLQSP
Experimental: as §1, §2

Substance: Delta-9-tetrahydrocannabinol [Δ^9-THC]
- response of chimera RRH to the compound [1]: poorly
- response of cells co-expressing both chimeras to the compound [2]: fully responsive

— patent US7575882B2, “Compositions and methods for identifying modulators of TRPV2” (Janssen Pharmaceutica N. V., priority 2005, dated 2009)
